Experimental data reported in paper PMC5927461, “Activation of host transient receptor potential (TRP) channels by praziquantel stereoisomers” (PLoS Neglected Tropical Diseases, 2018).

Key:
TRPM5 = biological target: T1, TRPM5 (Homo sapiens, UniProt Q9NZQ8); assay: TRP channel panel primary screen (membrane potential dye, stable CHO line); format: cell-based; settings: 0.3-300μM
T1 sequence (Q9NZQ8 1-1165): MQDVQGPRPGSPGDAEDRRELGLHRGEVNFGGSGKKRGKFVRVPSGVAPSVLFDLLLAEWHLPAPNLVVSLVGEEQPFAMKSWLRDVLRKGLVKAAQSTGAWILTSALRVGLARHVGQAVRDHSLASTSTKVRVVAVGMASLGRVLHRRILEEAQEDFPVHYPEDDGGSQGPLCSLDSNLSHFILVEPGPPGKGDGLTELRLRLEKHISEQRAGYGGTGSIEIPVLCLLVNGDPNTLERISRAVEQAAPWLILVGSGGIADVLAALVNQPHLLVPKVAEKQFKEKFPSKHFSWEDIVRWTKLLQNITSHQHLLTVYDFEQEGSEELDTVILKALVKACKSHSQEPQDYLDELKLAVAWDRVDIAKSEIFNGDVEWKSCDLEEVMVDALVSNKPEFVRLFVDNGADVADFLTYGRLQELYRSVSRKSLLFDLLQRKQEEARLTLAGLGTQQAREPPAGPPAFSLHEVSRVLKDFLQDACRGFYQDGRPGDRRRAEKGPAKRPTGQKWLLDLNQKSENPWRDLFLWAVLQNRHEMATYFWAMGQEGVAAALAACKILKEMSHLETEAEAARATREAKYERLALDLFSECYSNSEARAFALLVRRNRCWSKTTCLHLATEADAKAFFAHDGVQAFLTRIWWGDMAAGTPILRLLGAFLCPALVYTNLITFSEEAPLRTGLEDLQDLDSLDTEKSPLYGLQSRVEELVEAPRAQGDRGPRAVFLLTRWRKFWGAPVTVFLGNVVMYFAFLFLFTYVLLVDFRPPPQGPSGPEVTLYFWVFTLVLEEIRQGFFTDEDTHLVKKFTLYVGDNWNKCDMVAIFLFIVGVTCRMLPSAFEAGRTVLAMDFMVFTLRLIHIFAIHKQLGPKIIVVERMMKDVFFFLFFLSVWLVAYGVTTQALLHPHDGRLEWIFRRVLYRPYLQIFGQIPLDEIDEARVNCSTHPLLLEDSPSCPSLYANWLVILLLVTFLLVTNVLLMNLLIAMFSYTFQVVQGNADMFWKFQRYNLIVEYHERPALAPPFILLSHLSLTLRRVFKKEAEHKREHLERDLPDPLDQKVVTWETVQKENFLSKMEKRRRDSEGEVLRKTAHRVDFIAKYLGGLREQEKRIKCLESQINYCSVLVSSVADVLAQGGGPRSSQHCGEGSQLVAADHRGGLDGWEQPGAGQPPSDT
Protocol: ±PZQ, (R)-PZQ and (S)-PZQ were screened against a panel of 17 human TRP channels (SB Drug Discovery, Glasgow). For all hTRPs, except for TRPM5, individual channel constructs were stably expressed in HEK cell lines. TRMP5 was expressed in a stable CHO cell line. In preparation for the assays, cells were trypsinized, counted and seeded (50,000 cells/well) in black, clear-bottomed 96 well plates and incubated overnight. […] Plates were screened using a Flexstation (Molecular Devices, FX01138), monitoring fluorescence values every ~1.52 seconds. For ‘agonist mode’ testing, 10μl of the appropriate test compound, or standard agonist, was added after 20 seconds and fluorescence monitored for 2 minutes at λex = 485nm, λem = 525nm for Ca^2+ imaging and λex = 530nm, λem = 565nm for membrane potential measurements. […]

TRPA1 = test system: TRPA1; parameters: method as in PMID 29054683; settings: ≤100μM; cited from earlier work
[1] = test system: mouse mesenteric arteries; assay: Wire myography, mesenteric artery strips at resting (basal) tone; settings: 100μM added at basal tone

activation of TRPM5 in primary screen (TRPM5)	Structure (SMILES)	activity against TRPA1 (TRPA1)	change of tension at resting tone [1]
not activated	O=C(C1CCCCC1)N1CC(=O)N2CCc3ccccc3[C@H]2C1 [(S)-PZQ]		
	O=C(C1CCCCC1)N1CC(=O)N2CCc3ccccc3C2C1 (racemic) [±PZQ, praziquantel]	lack of activity	marked contraction
